Experimental data: publication PMC5303205, “Comparative studies on the multi-component pharmacokinetics of Aristolochiae Fructus and honey-fried Aristolochiae Fructus extracts after oral administration in rats” (BMC Complementary and Alternative Medicine, 2017)
Read-outs that look alike come from different tables or passages of the source.

Legend:
[1] = Stability of AAs in rat plasma (QC samples, HPLC-MS/MS); assay type: in vitro ADME; conditions: n = 5; for Short-term stability (RSD/%): fresh rat plasma at room temperature for 24 h before sample preparation; for Post-preparation stability (RSD/%): prepared rat plasma samples at room temperature for 24 h; for Long-term stability (RSD/%): rat plasma stored at –20 °C for 14 days; for Freeze-thaw stability (RSD/%): rat plasma, three freeze-thaw cycles (–20 °C 24 h, thawed at room temperature)
Description: The QC samples were assayed under several different conditions to evaluate the stability of AAs in rat plasma. The freeze-thaw stability of the analyte was determined over three freeze-thaw cycles. In each freeze-thaw cycle, the samples were frozen and stored at –20 °C for 24 h, then thawed at room temperature. To evaluate the long-term stability of AAs, the plasma samples were stored at –20 °C for 14 days. For the short-term stability, fresh plasma samples were kept at room temperature for 24 h before the sample preparation. After keeping the samples at room temperature for 24 h, post-preparation stability was tested. Stability was evaluated by comparing the mean concentration of the stored samples with the mean concentration of those prepared freshly. The stability data were acceptable when the bias was within ±15% of the actual value.

[2] = Multi-component pharmacokinetics of AAs in rats after oral administration of AF and HAF extracts (HPLC-MS/MS of plasma); set-up: species or system Sprague–Dawley (SD) rats; conditions: Sprague-Dawley, rat, in vivo
Description: An aliquot (100 μl) of rat plasma was spiked with 10.0 μL IS, and vortexed with 300 μL acetic ether for 10 s before the supernatant was transferred into centrifuge tube. The extraction was repeated with 200 μL acetic ether. The combined organic layer was evaporated to dryness under a gentle stream of nitrogen at RT. The residue was resolved in 100 μL methanol and centrifuged at 15,800 × g for 10 min. The supernatant was used for HPLC-MS/MS analysis.
Chromatographic separation was performed by an Acquity C18 column (4.6 × 100 mm,3.5 μm) (Agilent Technologies, USA). The mobile phase was composed of water (containing 10 mM ammonium formate and formic acid, pH 3.0) (solvent A) and ACN (solvent B). The gradient profile of B was: 0–10 min, 35–38%; 10–11 min, 38– 60%; 11–17 min, 60–35%B; 17–18 min, 35%. The flow rate was kept at 0.5 mL/min. The column oven was set at 30 °C and the injection volume was 10 μL.
The mass spectrometer was operated in the positive ion electrospray mode with multiple reaction monitoring (MRM). The optimal MS parameters were set at the following parameters: a desolvation gas temperature of 450 °C, desolvation gas flow of 10 L/min, a nebulizer gas of 40 psi and a capillary voltage of 4000 V. The mass spectrometry conditions of AA I, AA II, AA C, AA D, 7-OH AA I and IS are summarized in Additional file 1: Table S1.
The rats were randomly divided into 6 groups (low, middle and high doses of AF and HAF; n = 6). After a week of acclimation, the animals were fasted for 12 h with free access to water. Then, AF and HAF extracts were administered to the rats. The extracts were suspended in 0.5% CMC–Na solution, and the oral doses (according to AA I in the extracts) were 3.0 mg/kg, 8.0 mg/kg and 15.0 mg/kg, respectively.
Blood samples were collected from the ocular vein using dried heparinized tubes at 0, 0.083, 0.17, 0.33, 0.50, 0.67, 0.83, 1, 2, 4, 6, 8, 10, 12 and 24 h from the start. The animals received fluid replacement (sterile isotonic saline) after every two samplings since the fifth collecting. The samples were then immediately centrifuged at 3100 × g for 10 min. The plasma obtained was frozen and stored at –20 °C until analysis.
All statistical analyses were performed using the SPSS 11.0 software (Chicago, USA). P values <0.05 were considered statistically significant. Pharmacokinetic analysis was performed using the proprietary DAS 3.0 software (Mathematical Pharmacology Professional Committee of China, Shanghai, China).
After the oral administration of AF and HAF extracts, rat plasma samples were prepared and analyzed as described above. Five main AAs can be detected in rat blood with the proposed HPLC-MS/MS method. The mean pharmacokinetic parameters of five AAs in AF and HAF are summarized in Tables 4, 5 and Additional files 5, 6, 7: Tables S4-S6. The maximum concentration (C max) was the experimentally-observed value. The other pharmacokinetic parameters of the five analytes were fitted by DAS 3.0 software.

[3] = high QC conc ng/mL: AA I 1830, AA II 3200, AA C 2980, AA D 3680, 7-OH AA I 3280
[4] = low QC conc ng/mL: AA I 1.83, AA II 8.00, AA C 186.3, AA D 36.8, 7-OH AA I 82.0
[5] = middle QC conc ng/mL: AA I 457.5, AA II 400, AA C 372.5, AA D 460, 7-OH AA I 410
[6] = 3 mg/kg, AF extract, low dose (3.0 mg/kg as AA I), analyte dose mg/kg: AA I 3.0, AA II 0.21, AA C 1.42, AA D 1.60, 7-OH AA I 2.33, n = 6
[7] = 3 mg/kg, HAF extract, low dose (3.0 mg/kg as AA I), analyte dose mg/kg: AA I 3.0, AA II 0.26, AA C 1.53, AA D 1.51, 7-OH AA I 2.48, n = 6
[8] = 8 mg/kg, AF extract, mid dose (8.0 mg/kg as AA I), analyte dose mg/kg: AA I 8.0, AA II 0.56, AA C 3.78, AA D 4.26, 7-OH AA I 6.22, n = 6
[9] = 8 mg/kg, HAF extract, mid dose (8.0 mg/kg as AA I), analyte dose mg/kg: AA I 8.0, AA II 0.69, AA C 4.09, AA D 4.03, 7-OH AA I 6.62, n = 6
[10] = 15 mg/kg, AF extract, high dose (15.0 mg/kg as AA I), analyte dose mg/kg: AA I 15.0, AA II 1.05, AA C 7.09, AA D 8.00, 7-OH AA I 11.66, n = 6
[11] = 15 mg/kg, HAF extract, high dose (15.0 mg/kg as AA I), analyte dose mg/kg: AA I 15.0, AA II 1.29, AA C 7.66, AA D 7.56, 7-OH AA I 12.41, n = 6

## COc1cc(O)cc2c1cc([N+](=O)[O-])c1c(C(=O)O)cc3c(c12)OCO3 [AA D]
[1]; [3]
  Short-term stability (RSD/%): 8.6%
  Post-preparation stability (RSD/%): 2.8%
  Long-term stability (RSD/%): 12.7%
  Freeze-thaw stability (RSD/%): 14.3%
[1]; [4]
  Short-term stability (RSD/%): 5.0%
  Post-preparation stability (RSD/%): 4.5%
  Long-term stability (RSD/%): 5.2%
  Freeze-thaw stability (RSD/%): 4.8%
[1]; [5]
  Short-term stability (RSD/%): 11.7%
  Post-preparation stability (RSD/%): 3.1%
  Long-term stability (RSD/%): 2.5%
  Freeze-thaw stability (RSD/%): 8.4%
[2]; [6]
  AUC(0-inf): 194 ng·h/mL
  Cmax: 78.5 ng/mL
  Tmax: 0.56 h
[2]; 3 mg/kg, AF extract, low dose (3.0 mg/kg as AA I), analyte dose mg/kg: AA I 3.0, AA II 0.21, AA C 1.42, AA D 1.60, 7-OH AA I 2.33, n = 6, read-out: CLz/F (converted)
  CL/F: 168 mL/min/kg
[2]; 3 mg/kg, AF extract, low dose (3.0 mg/kg as AA I), analyte dose mg/kg: AA I 3.0, AA II 0.21, AA C 1.42, AA D 1.60, 7-OH AA I 2.33, n = 6, read-out: Vz/F
  Vd/F: 35.7 L/kg
[2]; 3 mg/kg, AF extract, low dose (3.0 mg/kg as AA I), analyte dose mg/kg: AA I 3.0, AA II 0.21, AA C 1.42, AA D 1.60, 7-OH AA I 2.33, n = 6, read-out: t 1/2z (converted)
  half-life: 2.45 h
[2]; [7]
  AUC(0-inf): 179 ng·h/mL
  Cmax: 58.6 ng/mL
  Tmax: 0.78 h
[2]; 3 mg/kg, HAF extract, low dose (3.0 mg/kg as AA I), analyte dose mg/kg: AA I 3.0, AA II 0.26, AA C 1.53, AA D 1.51, 7-OH AA I 2.48, n = 6, read-out: CLz/F (converted)
  CL/F: 158 mL/min/kg
[2]; 3 mg/kg, HAF extract, low dose (3.0 mg/kg as AA I), analyte dose mg/kg: AA I 3.0, AA II 0.26, AA C 1.53, AA D 1.51, 7-OH AA I 2.48, n = 6, read-out: Vz/F
  Vd/F: 30.6 L/kg
[2]; 3 mg/kg, HAF extract, low dose (3.0 mg/kg as AA I), analyte dose mg/kg: AA I 3.0, AA II 0.26, AA C 1.53, AA D 1.51, 7-OH AA I 2.48, n = 6, read-out: t 1/2z (converted)
  half-life: 2.05 h
[2]; [8]
  AUC(0-inf): 402 ng·h/mL
  Cmax: 126 ng/mL
  Tmax: 0.56 h
[2]; 8 mg/kg, AF extract, mid dose (8.0 mg/kg as AA I), analyte dose mg/kg: AA I 8.0, AA II 0.56, AA C 3.78, AA D 4.26, 7-OH AA I 6.22, n = 6, read-out: CLz/F (converted)
  CL/F: 359 mL/min/kg
[2]; 8 mg/kg, AF extract, mid dose (8.0 mg/kg as AA I), analyte dose mg/kg: AA I 8.0, AA II 0.56, AA C 3.78, AA D 4.26, 7-OH AA I 6.22, n = 6, read-out: Vz/F
  Vd/F: 75.7 L/kg
[2]; 8 mg/kg, AF extract, mid dose (8.0 mg/kg as AA I), analyte dose mg/kg: AA I 8.0, AA II 0.56, AA C 3.78, AA D 4.26, 7-OH AA I 6.22, n = 6, read-out: t 1/2z (converted)
  half-life: 2.43 h
[2]; [9]
  AUC(0-inf): 323 ng·h/mL
  Cmax: 89.2 ng/mL
  Tmax: 0.75 h
[2]; 8 mg/kg, HAF extract, mid dose (8.0 mg/kg as AA I), analyte dose mg/kg: AA I 8.0, AA II 0.69, AA C 4.09, AA D 4.03, 7-OH AA I 6.62, n = 6, read-out: CLz/F (converted)
  CL/F: 190 mL/min/kg
[2]; 8 mg/kg, HAF extract, mid dose (8.0 mg/kg as AA I), analyte dose mg/kg: AA I 8.0, AA II 0.69, AA C 4.09, AA D 4.03, 7-OH AA I 6.62, n = 6, read-out: Vz/F
  Vd/F: 37.8 L/kg
[2]; 8 mg/kg, HAF extract, mid dose (8.0 mg/kg as AA I), analyte dose mg/kg: AA I 8.0, AA II 0.69, AA C 4.09, AA D 4.03, 7-OH AA I 6.62, n = 6, read-out: t 1/2z (converted)
  half-life: 2.3 h
[2]; [10]
  AUC(0-inf): 960 ng·h/mL
  Cmax: 155 ng/mL
  Tmax: 0.64 h
[2]; 15 mg/kg, AF extract, high dose (15.0 mg/kg as AA I), analyte dose mg/kg: AA I 15.0, AA II 1.05, AA C 7.09, AA D 8.00, 7-OH AA I 11.66, n = 6, read-out: CLz/F (converted)
  CL/F: 560 mL/min/kg
[2]; 15 mg/kg, AF extract, high dose (15.0 mg/kg as AA I), analyte dose mg/kg: AA I 15.0, AA II 1.05, AA C 7.09, AA D 8.00, 7-OH AA I 11.66, n = 6, read-out: Vz/F
  Vd/F: 153 L/kg
[2]; 15 mg/kg, AF extract, high dose (15.0 mg/kg as AA I), analyte dose mg/kg: AA I 15.0, AA II 1.05, AA C 7.09, AA D 8.00, 7-OH AA I 11.66, n = 6, read-out: t 1/2z (converted)
  half-life: 2.89 h
[2]; [11]
  AUC(0-inf): 590 ng·h/mL
  Cmax: 148 ng/mL
  Tmax: 0.63 h
[2]; 15 mg/kg, HAF extract, high dose (15.0 mg/kg as AA I), analyte dose mg/kg: AA I 15.0, AA II 1.29, AA C 7.66, AA D 7.56, 7-OH AA I 12.41, n = 6, read-out: CLz/F (converted)
  CL/F: 206 mL/min/kg
[2]; 15 mg/kg, HAF extract, high dose (15.0 mg/kg as AA I), analyte dose mg/kg: AA I 15.0, AA II 1.29, AA C 7.66, AA D 7.56, 7-OH AA I 12.41, n = 6, read-out: Vz/F
  Vd/F: 47.9 L/kg
[2]; 15 mg/kg, HAF extract, high dose (15.0 mg/kg as AA I), analyte dose mg/kg: AA I 15.0, AA II 1.29, AA C 7.66, AA D 7.56, 7-OH AA I 12.41, n = 6, read-out: t 1/2z (converted)
  half-life: 2.4 h
